Experimental data as given in patent US8258182B2, “Substituted 1,3-diphenylpropane derivatives, preparations and uses thereof” (Genfit, priority 2006, dated 2012).

Test system: PPARs target genes (PDK4, ApoCIII, ACO) in the hepatic tissue
Assay: Hepatic expression of PPAR target genes in E2/E2 mice (quantitative RT-PCR)
Format: in vivo, mouse
Conditions: 3 and 10 mpk
Method: The effectiveness of the compounds according to the invention is also evaluated by measuring, in the hepatic tissue, the expression of genes involved in lipid and/or glucids metabolism and in energy dissipation. Each level of genes expression is normalised regarding the expression level of the reference gene 36B4's. The induction factor, i.e. the ratio between the relative signal (induced by the compound according to the invention) and the average of the relative values relating to the control group is then calculated. The higher the induction factor is, the more the compound promotes hepatic gene expression. The final result is expressed as an average of the induction values obtained with each experimental group.
The PPARα agonist properties previously measured in vitro should, in the liver, lead to an overexpression of the target genes directly under the control of the PPARα: the genes we have studied in this experiment are PDK-4 (an enzyme involved in glucid metabolism), Apo CIII (an apolipoprotein involved in lipid metabolism), and Acox1 (in mice, Acox1 corresponds to the ACO gene in humans (Acyl Co-enzymeA Oxydase, an enzyme key to the fatty acid β-oxidation mechanism)). Measuring the transcriptional activity of PPARα target genes after a treatment with compounds according to the invention does therefore allow to evaluate the hypolipidemic properties of the compounds according to the invention.
The ApoE2/E2 transgenic mice were kept on a 12 hour/12 hour light/dark cycle at a constant temperature of 20±3° C. After a one week acclimatization period, the mice were weighed and divided into groups of 6 animals selected so as to render uniform the distribution of their body weights and plasma lipid rates, determined before the experiment. The tested compounds were suspended in carboxymethylcellulose (Sigma C4888) and administered by intra-gastric tube feeding once a day for 8 days (for compound 1) or 14 days (for compound 8) with the chosen doses. The animals had free access to food and water (standard diet). Taking of food and weight gain are recorded throughout the experiment. At the end of the experiment, the animals were anesthetized after a 4 hour fast, and a blood sample was taken using (EDTA) anticoagulant, then the mice were weighed and euthanized. The plasma was separated by centrifugation at 3000 rotations/minute for 20 minutes. The samples were kept at +4° C.
Liver samples were removed, frozen in liquid nitrogen, and kept at −80° C. for later analyses.
Total RNA is extracted from liver fragments by using the NucleoSpin® 96 RNA kit (Macherey Nagel, Hoerdt, France) according to the manufacturer's instructions.
1 μg of total RNA (quantified by using the Ribogreen RNA quantification kit (Molecular Probes)) is then reverse-transcripted into complementary DNA by means of a 1 hour reaction at 37° C. in a total volume of 20 μl containing a 1× buffer (Sigma), 1.5 mM of DTT, 0.18 mM of dNTPs (Promega), 200 ng of pdN6 (Amersham), 30U of RNase inhibitor (Sigma), and 1 μl of MMLV-RT (Sigma).
The PCR quantitative experiments were carried out using the MyiQ Single-Color Real-Time PCR Detection System (Biorad, Marnes-la-Coquette, France) and were performed using the iQ SYBR Green Supermix kit according to the manufacturer's recommendations, in 96-well trays in 5 μl of a diluted reverse transcription solution at a hybridation temperature of 55° C. The specific primer pairs of the genes studied were used: • PDK4: sense primer: 5′-[…]-3′ (SEQ ID NO: 1) and antisense primer 5′-[…]-3′ (SEQ ID NO: 2)) • ApoCIII: sense primer: 5′-[…]-3′ (SEQ ID NO: 3) and antisense primer 5′-[…]-3′ (SEQ ID NO: 4). • ACO: sense primer: 5′-[…]-3′ (SEQ ID NO: 5) and antisense primer: 5′-[…]-3′ (SEQ ID NO: 6)
The quantity of fluorescencet emitted is directly proportional to the quantity of cDNA present at the beginning of the reaction and amplified during the PCR. […]

## CCCOc1ccc(C(=O)CCc2cc(C)c(OC(C)(C)C(=O)O)c(C)c2)cc1 [Compound 8, 2-[2,6-dimethyl-4-[3-[4-(propyloxy)phenyl]-3-oxo-propyl]phenoxyl]-2-methylpropanoic acid]
14 days (FIG. 2-7)
  hepatic expression of the genes coding for PDK4: significant augmentation
14 days (FIG. 2-8)
  hepatic expression of the genes coding for ApoCIII: reduction
14 days (FIG. 2-9)
  hepatic expression of the genes coding for ACO: significant augmentation
